This assay concerns HEK293 cells. Description: Preliminary screening as DNA vectors, GFP transfection of HEK293 cells. In kind it is cell-based. The note with it: amino lipid/DOPE liposome with 75 ng plasmid DNA (psin-EGFP-IRES-Puro); number of GFP-expressing cells divided by total nuclei (Hoechst). How it is done: Cell line: HEK293 cells (ATCC CRL-1573™)
Medium: DMEM supplemented with 10% fetal bovine serum (Invitrogen)
Mode of screening: cell transfection on 96-well plates
Detection (readout): percentage of the number of GFP fluorescent cells relative to the total number of cells (the total number of cells was measured using nucleus dye Hoechst—see FIG. 2). Lipofectamine2000 (Invitrogen) was used as positive control, according to the manufacturer's instructions.
Method: an 8-channel pipette was used for sample addition. The contents shown were for a single well of a 96-well flat plate.
1. The compound (0.01 mmol) prepared in Example 1 was dissolved in 1 mL of anhydrous ethanol. After ultrasonically dissolved, 10 μL of the resultant amino lipid solution in ethanol was taken and mixed with 5 μL of DOPE solution in ethanol (0.01 m), and then to the obtained mixture was added 35 μL of 0.2M sodium acetate buffer (pH 5.6), and 50 μL of liposome solution was prepared by vortex at a constant rotating speed for 30 s. 4 μL was taken from the 50 μL liposome solution and added to 46 μL of 0.02M sodium acetate buffer (pH 5.6), and the final liposome solution was formed by vortex at a constant rotating speed for 30 s. 5 μL was taken from the final liposome solution and mixed with 75 ng plasmid DNA (psin-EGFP-IRES-Puro, Clontech) dissolved in 5 μL of 0.02 M sodium acetate buffer, and was allowed to stay at room temperature for 30 min to form a lipid/DNA transfection complex.
2. 10 μL of the lipid/DNA transfection complex was incubated at room temperature for 30 min, followed by addition of 90 μL of fresh resuspended cells (3-5×10^4 cells) and mixing with a pipette. 100 μL of cells+lipid/DNA complex was transferred to separate wells of a 96-well culture plate immediately, and placed in an incubator containing 5% CO2 at 37° C.
3. Hoechst33258 (Invitrogen) was added at a final concentration of 0.2 μg/mL to the cells 20 to 24 hours after initial cell transfection, and cultured in darkness at 37° C. for 15 min. Afterwards, the cells were washed once with a PBS solution, and then added with medium for culture for 20 to 24 h.
4. The cells were placed in a high-throughput confocal microscope (Molecular Devices ImageXpress), and four visual fields of the image of the cells were captured for each well, and images at three laser wavelengths were captured for each sample: bright field images of cells (FIG. 2(a) and FIG. 2(b)), Hoechst-staining images showing total nuclei (FIG. 2(c) and FIG. 2(d)) and GFP images showing success in transfection with the plasmid DNA and the expression of GFP (FIG. 2(e) and FIG. 2(f)). MetaXpress software was used to separately count the cells in the Hoechst-staining images and GFP images, and then the number of cells expressing GFP was divided by the total number of nuclei to give the absolute cell transfection efficiency. The absolute transfection efficiency was calculated as follows: […]
Consider `CCCCCCCCCCCCNc1nc(NCCN2CCCCC2)nc(SCCCCCC)n1` [S6N12 D4], for which the “Absolute DNA transfection efficiency in HEK293 cells” value (“Absolute DNA transfection efficiency” below) came to 2.0%. Regarding `CCCCCCCCCCCCNc1nc(NCCN2CCN(C)CC2)nc(SCCCCCC)n1` [S6N12 D5], the “Absolute DNA transfection efficiency” value was determined as 25.9%. Then `CCCCCCCCCCCCNc1nc(NCCCN(C)C)nc(SCCCCCC)n1` [S6N12 D6], with 6.0%; and `CCCCCCCCCCCCNc1nc(NCCN(CC)CC)nc(SCCCCCC)n1` [S6N12 D7], with 2.2%. Consider `CCCCCCCCCCCCNc1nc(NCCCN2CCOCC2)nc(SCCCCCC)n1` [S6N12 D8], for which the “Absolute DNA transfection efficiency” value is given as 4.0%.

As for `CCCCCCCCCCCCNc1nc(NCCCN2CCN(C)CC2)nc(SCCCCCC)n1` [S6N12 D9], the “Absolute DNA transfection efficiency” value was found to be 38.8%. The value for `CCCCCCCCCCCCNc1nc(NCC2CCN(C)CC2)nc(SCCCCCC)n1` [S6N12 D10] was 21.3%; that for `CCCCCCCCCCCCCNc1nc(NCCN(C)C)nc(SCCCCCC)n1` [S6N13 D1] was 6.5%.

As for `CCCCCCCCCCCCCNc1nc(NCCN2CCOCC2)nc(SCCCCCC)n1` [S6N13 D2], the “Absolute DNA transfection efficiency” value is recorded as 1.9%. For `CCCCCCCCCCCCCNc1nc(NCCN2CCCC2)nc(SCCCCCC)n1` [S6N13 D3], the “Absolute DNA transfection efficiency” value came to 9.9%.

On to `CCCCCCCCCCCCCNc1nc(NCCN2CCCCC2)nc(SCCCCCC)n1` [S6N13 D4], for which the “Absolute DNA transfection efficiency” value is on record as 2.1%. Turning to `CCCCCCCCCCCCCNc1nc(NCCN2CCN(C)CC2)nc(SCCCCCC)n1` [S6N13 D5], the “Absolute DNA transfection efficiency” value was 24.1%.

With `CCCCCCCCCCCCCNc1nc(NCCCN(C)C)nc(SCCCCCC)n1` [S6N13 D6], the “Absolute DNA transfection efficiency” value was 12.9%. `CCCCCCCCCCCCCNc1nc(NCCN(CC)CC)nc(SCCCCCC)n1` [S6N13 D7]: the “Absolute DNA transfection efficiency” value stood at 2.0%. Turning to `CCCCCCCCCCCCCNc1nc(NCCCN2CCOCC2)nc(SCCCCCC)n1` [S6N13 D8], the “Absolute DNA transfection efficiency” value came out at 4.9%. With `CCCCCCCCCCCCCNc1nc(NCCCN2CCN(C)CC2)nc(SCCCCCC)n1` [S6N13 D9], the “Absolute DNA transfection efficiency” value is listed as 38.3%.

With `CCCCCCCCCCCCCNc1nc(NCC2CCN(C)CC2)nc(SCCCCCC)n1` [S6N13 D10], the “Absolute DNA transfection efficiency” value was 51.6%.

Regarding `CCCCCCCCCCCCCCCNc1nc(NCCN(C)C)nc(SCCCCCC)n1` [S6N15 D1], the “Absolute DNA transfection efficiency” value is listed as 5.8%. For the compound `CCCCCCCCCCCCCCCNc1nc(NCCN2CCOCC2)nc(SCCCCCC)n1` [S6N15 D2], the “Absolute DNA transfection efficiency” value was determined as 2.0%.

In the case of `CCCCCCCCCCCCCCCNc1nc(NCCN2CCCC2)nc(SCCCCCC)n1` [S6N15 D3], the “Absolute DNA transfection efficiency” value was determined as 15.9%. Then `CCCCCCCCCCCCCCCNc1nc(NCCN2CCCCC2)nc(SCCCCCC)n1` [S6N15 D4], with 1.7%. Take `CCCCCCCCCCCCCCCNc1nc(NCCN2CCN(C)CC2)nc(SCCCCCC)n1` [S6N15 D5]: the “Absolute DNA transfection efficiency” value was found to be 22.3%. The value for `CCCCCCCCCCCCCCCNc1nc(NCCCN(C)C)nc(SCCCCCC)n1` [S6N15 D6] was 25.9%. For the compound `CCCCCCCCCCCCCCCNc1nc(NCCN(CC)CC)nc(SCCCCCC)n1` [S6N15 D7], the “Absolute DNA transfection efficiency” value is on record as 1.2%. Turning to `CCCCCCCCCCCCCCCNc1nc(NCCCN2CCOCC2)nc(SCCCCCC)n1` [S6N15 D8], the “Absolute DNA transfection efficiency” value is reported as 3.3%.

For the compound `CCCCCCCCCCCCCCCNc1nc(NCCCN2CCN(C)CC2)nc(SCCCCCC)n1` [S6N15 D9], the “Absolute DNA transfection efficiency” value was found to be 28.4%. On to `CCCCCCCCCCCCCCCNc1nc(NCC2CCN(C)CC2)nc(SCCCCCC)n1` [S6N15 D10], for which the “Absolute DNA transfection efficiency” value was 31.1%. Take `CCCCCCCCCCCCCCCCNc1nc(NCCN(C)C)nc(SCCCCCC)n1` [S6N16 D1]: the “Absolute DNA transfection efficiency” value is 6.6%.

The values above are taken from US20230123334A1, “AMINO LIPID COMPOUND, PREPARATION METHOD THEREFOR, AND APPLICATION THEREOF” (SHENZHEN SHENXIN BIOTECHNOLOGY CO., LTD., priority 2020, published 2023).
